# What was measured:
# [1] = Stability in Simulated Gastric Fluid (SGF); assay type: in vitro ADME; design: key: % parent compound remaining relative to 0-minute sample
# Procedure, shortened: (§1)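 Percent of parent remaining relative to time zero was measured by LC-MS/MS over 0–60 min at 37 °C, 150 rpm. Test compound was 2 μg/mL final in pepsin-containing SGF, pH 1.2, or pancreatin-containing SIF, pH 6.8. Degradation half-life was derived from the log-linear decay where enough points allowed.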
# [2] = Caco-2 Permeability Assay; assay type: in vitro ADME, human; conditions: human
# Procedure, shortened: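 Bidirectional transport at 37 °C for 90 min, 10 μM donor concentration, with or without Pgp inhibitor, across 21-day Caco-2 monolayers with TEER >600 […] in HEPES-buffered HBSS, pH 7.4. LC-MS/MS of donor and receiver samples gives Papp, B→A/A→B efflux ratio and mass recovery.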
# [3] = Plasma Stability; assay type: in vitro ADME, human
# Procedure, shortened: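 Parent compound quantified by LC-MS/MS after acetonitrile precipitation, reported as percent of control remaining (triplicate). Incubation: 1 hour, 37° C, fresh human plasma, compound at 1 μM.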
# [4] = Stability in Simulated Intestinal Fluid (SIF); assay type: in vitro ADME; design: key: % parent compound remaining relative to 0-minute sample
# Procedure, shortened: as §1
# [5] = % remaining at 1 h in simulated gastric fluid
# [6] = Caco-2, pH 7.4, Caco-2 monolayer
# [7] = % remaining at 1 h in human plasma
# [8] = % remaining at 1 h in simulated intestinal fluid
# [9] = % @ 1 h (remaining) in simulated gastric fluid
# [10] = % @ 1 h (remaining) in human plasma
# [11] = % @ 1 h (remaining) in simulated intestinal fluid
# [12] = simulated gastric fluid, remaining at 1 h
# [13] = simulated intestinal fluid, remaining at 1 h
# [14] = % remaining at 1 h in simulated gastric fluid, the 17th table
# [15] = Caco-2, pH 7.4, Caco-2 monolayer, the 17th table
# [16] = % remaining at 1 h in human plasma, the 17th table
# [17] = % remaining at 1 h in simulated intestinal fluid, the 17th table
# [18] = bare number, unit or time not given, the 15th table Examples 204-207
# [19] = Caco-2, pH 7.4, Caco-2 monolayer, the 15th table
# [20] = % remaining at 1 h in human plasma, the 15th table
smiles,measurement,setting,value
"CC(C)C[C@@H](N)C(=O)OCn1ccc2c1c(=O)n(CO)c(=S)n2CCOC(C)C.O=C(O)C(F)(F)F [Example 327, trifluoroacetic acid [3-(hydroxymethyl)-4-oxo-1-[2-(propan-2-yloxy)ethyl]-2-sulfanylidene-1H,2H,3H,4H,5H-pyrrolo[3,2-d]pyrimidin-5-yl]methyl (2R)-2-amino-4-methylpentanoate]",SGF,[1]; % remaining @ 1 h,100%@ 1 h
same,"Papp at 90 min, 10 µM","[2]; Caco-2, pH 7.4",< 10.3 nm/s
same,human Plasma stability,[3]; % remaining @ 1 h,21%@ 1 h
same,SIF,[4]; % remaining @ 1 h,49%@ 1 h
COC(=O)N1CCCC1C(=O)NCCC(=O)OCn1ccc2c1c(=O)[nH]c(=S)n2CCOC(C)C.O=C(O)C(F)(F)F (stereo not shown) [Example 60],SGF,[1]; [5],99% remaining
same,"Papp at 90 min, 10 µM",[2]; [6],6.11 nm/s
same,human Plasma stability,[3]; [7],37% remaining
same,SIF,[4]; [8],88% remaining
"CC(C)OCCn1c(SCOC(=O)[C@@H](Cc2ccccc2)NC(=O)OC(C)(C)C)nc(=O)c2c1ccn2COC(=O)[C@@H](Cc1ccccc1)NC(=O)OC(C)(C)C [Example 306, {[5-({[(2R)-2-{[(tert-butoxy)carbonyl]amino}-3-phenylpropanoyl]oxy}methyl)-4-oxo-1-[2-(propan-2-yloxy)ethyl]-1H,4H,5H-pyrrolo[3,2-d]pyrimidin-2-yl]sulfanyl}methyl (2R)-2-{[(tert-butoxy)carbonyl]amino}-3-phenylpropanoate]",SGF,[1]; % remaining @ 1 h,41% @ 1 h
same,"Papp at 90 min, 10 µM","[2]; Caco-2, pH 7.4",38 nm/s
same,human Plasma stability,[3]; % remaining @ 1 h,72% @ 1 h
same,SIF,[4]; % remaining @ 1 h,1% @ 1 h
CC(C)OCCn1c(SCOC(=O)N(C)CCc2ccccc2)nc(=O)c2[nH]ccc21.O=C(O)C(F)(F)F [Example 175],SGF,[1]; [9],99% @ 1 h
same,"Papp at 90 min, 10 µM",[2]; [6],309 nm/s
same,human Plasma stability,[3]; [10],95% @ 1 h
same,SIF,[4]; [11],92% @ 1 h
"CC(C)OCCn1c(=S)n(COC(=O)CCCOC(=O)[C@@H](Cc2ccccc2)NC(=O)OC(C)(C)C)c(=O)c2c1ccn2COC(=O)CCCOC(=O)[C@@H](Cc1ccccc1)NC(=O)OC(C)(C)C [Example 365, (3-{[(4-{[(2R)-2-{[(tert-butoxy)carbonyl]amino}-3-phenylpropanoyl]oxy}butanoyl)oxy]methyl}-4-oxo-1-[2-(propan-2-yloxy)ethyl]-2-sulfanylidene-1H,2H,3H,4H,5H-pyrrolo[3,2-d]pyrimidin-5-yl)methyl 4-{[(2R)-2-{[(tert-butoxy)carbonyl]amino}-3-phenylpropanoyl]oxy}butanoate]",SGF,[1]; [12],85% remaining
same,"Papp at 90 min, 10 µM",[2]; [6],< 2.63 nm/s
same,human Plasma stability,"[3]; human plasma, remaining at 1 h",11% remaining
same,SIF,[4]; [13],5% remaining
CC(C)OCCn1c(=S)[nH]c(=O)c2c1ccn2COC(=O)CCNC(=O)CN(C)C(=O)CNC(=O)OC(C)(C)C.O=C(O)C(F)(F)F [Example 58],SGF,[1]; [5],77% remaining
same,"Papp at 90 min, 10 µM",[2]; [6],2.87 nm/s
same,human Plasma stability,[3]; [7],49% remaining
same,SIF,[4]; [8],84% remaining
CC(C)OCCn1c(=S)[nH]c(=O)c2c1ccn2COC(=O)CCCCNC(=O)[C@@H]1CCC(=O)N1C.O=C(O)C(F)(F)F [Example 63],SGF,[1]; [5],97% remaining
same,"Papp at 90 min, 10 µM",[2]; [6],2 nm/s
same,human Plasma stability,[3]; [7],0% remaining
same,SIF,[4]; [8],98% remaining
CC(C)OCCn1c(=S)[nH]c(=O)c2c1ccn2COC(=O)CCCCNC(=O)[C@@H](N)[C@@H](C)O.O=C(O)C(F)(F)F [Example 39],SGF,[1]; [5],91% remaining
same,"Papp at 90 min, 10 µM",[2]; [6],< 1.96 nm/s
same,human Plasma stability,[3]; [7],5% remaining
same,SIF,[4]; [8],91% remaining
CCC(C)NC(=O)n1ccc2c1c(=O)[nH]c(=S)n2CCOC(C)C (stereo not shown) [Example 226],SGF,[1]; [14],91% remaining
same,"Papp at 90 min, 10 µM",[2]; [15],351 nm/s
same,human Plasma stability,[3]; [16],97% remaining
same,SIF,[4]; [17],83% remaining
CC(C)OCCn1c(=S)[nH]c(=O)c2c1ccn2COC(=O)CCNC(=O)CN(C)C(=O)OC(C)(C)C.O=C(O)C(F)(F)F [Example 54],SGF,[1]; [5],93% remaining
same,"Papp at 90 min, 10 µM",[2]; [6],31.4 nm/s
same,human Plasma stability,[3]; [7],74% remaining
same,SIF,[4]; [8],87% remaining
"CC(C)OCCn1c(SCOC(=O)CCCOC(=O)[C@@H](Cc2ccccc2)NC(=O)OC(C)(C)C)nc(=O)c2c1ccn2COC(=O)CCCOC(=O)[C@@H](Cc1ccccc1)NC(=O)OC(C)(C)C [Example 363, [(5-{[(4-{[(2R)-2-{[(tert-butoxy)carbonyl]amino}-3-phenylpropanoyl]oxy}butanoyl)oxy]methyl}-4-oxo-1-[2-(propan-2-yloxy)ethyl]-1H,4H,5H-pyrrolo[3,2-d]pyrimidin-2-yl)sulfanyl]methyl 4-{[(2R)-2-{[(tert-butoxy)carbonyl]amino}-3-phenylpropanoyl]oxy}butanoate]",SGF,[1]; [12],97% remaining
same,"Papp at 90 min, 10 µM",[2]; [6],16.3 nm/s
same,human Plasma stability,"[3]; human plasma, remaining at 1 h",42% remaining
same,SIF,[4]; [13],18% remaining
CC(C)C[C@H](N)C(=O)NCCC(=O)OCn1ccc2c1c(=O)[nH]c(=S)n2CCOC(C)C.O=C(O)C(F)(F)F [Example 30],SGF,[1]; [5],93% remaining
same,"Papp at 90 min, 10 µM",[2]; [6],< 2.69 nm/s
same,human Plasma stability,[3]; [7],40% remaining
same,SIF,[4]; [8],67% remaining
CC(C)OCCn1c(=S)n(COC(=O)C2CCN(C(=O)OC(C)(C)C)CC2)c(=O)c2c1ccn2COC(=O)CCC(=O)OC(C)(C)C [Example 132],SGF,[1]; [5],9% remaining
same,"Papp at 90 min, 10 µM",[2]; [6],42.9 nm/s
same,human Plasma stability,[3]; [7],11% remaining
same,SIF,[4]; [8],71% remaining
CC(C)OCCn1c(=S)[nH]c(=O)c2c1ccn2C(=O)Nc1ccccc1 [Example 227],SGF,[1]; [14],100% remaining
same,"Papp at 90 min, 10 µM",[2]; [15],16.7 nm/s
same,human Plasma stability,[3]; [16],99% remaining
same,SIF,[4]; [17],95% remaining
CC(C)OCCn1c(=S)[nH]c(=O)c2c1ccn2COC(=O)CCCCNC(=O)[C@H](Cc1ccc(O)cc1)NC(=O)OC(C)(C)C.O=C(O)C(F)(F)F [Example 45],SGF,[1]; [5],100%
same,"Papp at 90 min, 10 µM","[2]; pH 7.4, Caco-2 monolayer",22.8 nm/s
same,human Plasma stability,[3]; [7],66% remaining
same,SIF,[4]; [8],89% remaining
"COC(=O)[C@H](CCCCNC(=O)OC(C)(C)C)NC(=O)OCn1ccc2c1c(=O)[nH]c(=S)n2CCOC(C)C [Example 102, Methyl (2S)-6-{[(tert-butoxy)carbonyl]amino}-2-{[({4-oxo-1-[2-(propan-2-yloxy)ethyl]-2-sulfanylidene-1H,2H,3H,4H,5H-pyrrolo[3,2-d]pyrimidin-5-yl}methoxy)carbonyl]amino}hexanoate]",SGF,"[1]; % remaining at 1 h, SGF with pepsin pH 1.2, 2 μg/mL, 37° C., listed as EXAMPLE 102",75%
same,"Papp at 90 min, 10 µM","[2]; Caco-2, pH 7.4, donor 10 μM, 90 minutes, 37° C., direction not given",14.6 nm/s
same,human Plasma stability,"[3]; % remaining at 1 h, human plasma, 1 μM, 37° C., listed as EXAMPLE 102",97%
same,SIF,"[4]; % remaining at 1 h, SIF with pancreatin pH 6.8, 2 μg/mL, 37° C., listed as EXAMPLE 102",96%
"CC(C)OCCn1c(SCOC(=O)N(C)C)nc(=O)c2c1ccn2COC(=O)N(C)C [Example 165, trifluoroacetic acid [2-({[(dimethylcarbamoyl)oxy]methyl}sulfanyl)-4-oxo-1-[2-(propan-2-yloxy)ethyl]-1H,4H,5H-pyrrolo[3,2-d]pyrimidin-5-yl]methyl N,N-dimethylcarbamate]",SGF,[1]; [9],84% @ 1 h
same,"Papp at 90 min, 10 µM",[2]; [6],25.6 nm/s
same,human Plasma stability,[3]; [10],97% @ 1 h
same,SIF,[4]; [11],99% @ 1 h
CCCCOC(=O)OCSc1nc(=O)c2[nH]ccc2n1CCOC(C)C [Example 204],SGF,[1]; [18],85
same,"Papp at 90 min, 10 µM",[2]; [19],63.5 nm/s
same,human Plasma stability,[3]; [20],1% remaining
same,SIF,[4]; [18],2
COC(=O)OCSc1nc(=O)c2[nH]ccc2n1CCOC(C)C [Example 200],SGF,"[1]; % remaining at 1 h in simulated gastric fluid, the 15th table",100% remaining
same,"Papp at 90 min, 10 µM",[2]; [19],97.6 nm/s
same,human Plasma stability,[3]; [20],2% remaining
same,SIF,"[4]; % remaining at 1 h in simulated intestinal fluid, the 15th table",75% remaining

# From patent US20240067651A1 (Biohaven Therapeutics Ltd., priority 2019, published 2024)
